In BigSolDB 2.1:

Cn1nnc2c(C(N)=O)ncn2c1=O
solubility (mole fraction)
Conditions	273.15 K	278.15 K	283.15 K	288.15 K	293.15 K	298.15 K	303.15 K	308.15 K	313.15 K	318.15 K
in ethanol	6.58e-05	7.89e-05	9.48e-05	0.000115	0.000136	0.00016	0.000188	0.000225	0.000269	0.000313
in ethyl acetate	8.03e-05	9.96e-05	0.00012	0.000144	0.000173	0.000206	0.000237	0.000277	0.000319	0.000371
in isopropanol	2.2e-05	2.69e-05	3.4e-05	4.26e-05	5.17e-05	6.38e-05	7.8e-05	9.41e-05	0.000116	0.000143
in methanol	0.000174	0.000217	0.00027	0.000327	0.00039	0.000459	0.000536	0.000621	0.00072	0.000838
in n-propanol	4.28e-05	5.53e-05	6.99e-05	8.65e-05	0.000107	0.00013	0.000157	0.000188	0.000226	0.000271
